Test results reported in patent US20230183750A1, “HDR ENHANCERS” (OXFORD GENETICS LIMITED, priority 2020, published 2023).

Key:
HEK reporter cell line = experiment: cell-viability assay using alamar blue reagent; format: cell-based, human; conditions: 72 hours
Experimental: To investigate the effect of this library on HDR efficiency and to identify novel molecules which would increase the HDR mediated gene editing efficiency, first we carried out a cell-viability assay using the HEK reporter cell line and alamar blue reagent. The experiment was performed to rule out any toxicity associated with the small molecule library. Briefly, 3 different concentration of inhibitors (0.1 μM, 1 μM and 10 μM) were added in the cells in a 96 well plate format and plates were incubated for 72 hours. After 72 hours, the media were replaced with alamar blue containing media and the plates were further incubated for 3 hours and then read on a Fluorstar omega plate reader. The table gives the results obtained with the subsequently-selected inhibitors, together with a range of other potential inhibitors.

[1] = tested on: HEK293 reporter cell line; experiment: CRISPR/Cas9-based HDR assay (wtCas9 RNP, ssOligo donor, EGFP positive cells by FACS); format: cell-based, human; conditions: for HDR efficiency, single small molecule (FIG. 4): Example 4, first set of experiments, compared to no compound; for HDR efficiency in the initial screen with wtCas9: fold change compared to Cas9 alone, ≥20% increase (fold change ≥1.2) = positive influencer; for optimal concentration selected for further experiments: from the HDR dose dependency experiment; for dose dependency of HDR efficiency (FIG. 3): three concentrations (low, medium, high) per inhibitor; for concentration with the highest HDR efficiency: tested at 5, 10, 20 μM
Experimental: More specifically, an HDR assay using a HEK reporter cell line containing truncated EGFP may be used. These cells may be transfected with a transfection complex containing the CRISPR endonuclease and a donor sequence. Cas9 RNPs may be prepared by following the manufacturers' guidelines. The transfection complex may be prepared by adding Cas9 RNP or Cas9 nickase RNP, along with ssOligo donor and lipofectamine 2000 in Optimem. Reagents should be mixed well and incubated for 20 mins. After 20 mins, 50 μl of transfection complex (at an optimal concentration—see the Examples herein) may be transferred in a 96 well plate and 50 μl HEK293 reporter cell line suspension (9×10^5 cells/ml) added followed by 50 μl of cell culture medium containing appropriate concentration(s) of inhibitor(s). Cells may be incubated at 37° C. in a CO2 incubator for 24 hours and then inhibitor-containing media should be replaced with fresh media without inhibitor. Cells are then further incubated for 48 hours. After 48 hours, cells may be trypsinized and resuspended in PBS containing 10% FBS. Samples may be run on FACS and the percentage of EGFP in the population measured. Presence of EGFP directly correlates with HDR efficiency.
To investigate whether a knock-in truncated in HEK293 reporter cell line could be corrected by homology dependent repair, a CRISPR/Cas9-based HDR assay was used. We used ssODN as a donor template to correct the EGFP sequence and to restore functionality as ssODNs are known to be more efficient compared to the double-stranded donor for HDR based DNA repair. Briefly, cells were transfected with a wtCas9 ribonucleoprotein complex along with an oligo donor for restoring EGFP functionality. Cells were analysed by FACS 72 hours post-transfection (FIGS. 2A and 2B).
To identify the small molecules which would increases the HDR efficiency, we carried out experiments using the engineered HEK293 reporter cell line, ss-donor and wtCas9 in the presence of the inhibitors identified in Example 2. Briefly, in vitro reconstituted wtCas9 RNP with gRNA-X1 was transfected into the cells along with ssOligo donor (50 nM) in presence of the inhibitors. Inhibitor containing media was replaced with fresh media after 24 hours and cells were further incubated for 48 hours. After 48 hours cells were trypsinized and resuspended in 10% FBS containing PBS and analysed by FACS.
To understand whether increase in HDR is related to dose response, we carried out the HDR assay using three different concentrations of selected inhibitors as shown in the table below.
To investigate whether HDR efficiency would increase further by using the top hit small molecule combinations, we performed experiments using small molecule combinations for wtCas9. These combinations were selected using Design of Experiment (DoE) software. These combination experiments were carried out in 2 sets: the first set was performed in the absence of NU7441 (a known HDR enhancer); and the second set was performed in the presence of NU7441. […] In the second set of experiments, in the presence of NU7441, further increases (˜2fold) in HDR efficiency were observed compared to no NU7441 (FIG. 4). […]

| Compound | % survival (HEK reporter cell line; 0.1 μM inhibitor) [%] | % survival (HEK reporter cell line; 1 μM inhibitor) [%] | % survival (HEK reporter cell line; 10 μM inhibitor) [%] | HDR efficiency, single small molecule (FIG. 4) ([1]; wtCas9) | HDR efficiency at high concentration (FIG. 3) ([1]; concentration of 0.2 μM, wtCas9) | HDR efficiency in the initial screen with wtCas9 [1] | optimal concentration selected for further experiments ([1]; wtCas9) [µM] | further increase in HDR efficiency in the presence of NU7441 compared to no NU7441 (FIG. 4) ([1]; Example 4, second set of experiments, wtCas9) [fold] | HDR efficiency at high concentration (FIG. 3) ([1]; concentration of 2 μM, wtCas9) | dose dependency of HDR efficiency (FIG. 3) ([1]; wtCas9) | concentration with the highest HDR efficiency ([1]; wtCas9) [µM] |
| --- | --- | --- | --- | --- | --- | --- | --- | --- | --- | --- | --- |
| O=C(Nc1c[nH]nc1-c1nc2cc(CN3CCOCC3)ccc2[nH]1)NC1CC1 [AT9283] | 81.49 ± 3.59 | 69.69 ± 1.2 | 7.1 ± 0.06 | increase in HDR efficiency | moderated decreases in HDR efficiency | increase the HDR efficiency | 0.05 | – | – | – | – |
| Cc1cc(CN2CCN(c3c(Br)cnc4nc(-c5ccc(N6CCN(C)CC6)cc5)[nH]c34)CC2)no1 [CCT137690] | 105.48 ± 3.94 | 63.37 ± 2.12 | −0.08 ± 0.1 | – | – | – | – | – | – | – | – |
| O=c1cc(N2CCOCC2)oc2c1ccc1ccccc12 [NU7026] | 100.08 ± 4.01 | 100.14 ± 4.13 | 83.17 ± 1.44 | – | – | increase the HDR efficiency | – | – | – | – | – |
| O=c1cc(N2CCOCC2)oc2c(-c3cccc4c3sc3ccccc34)cccc12 [NU7441] | 103.58 ± 4.44 | 88.88 ± 3.55 | 22.95 ± 0.98 | increase in HDR efficiency | – | increase the HDR efficiency | 1 | ~2 | moderate increases | highest HDR efficiency | – |
| O=C([C@H](Cc1cccc(C(F)(F)F)c1)NS(=O)(=O)c1cc(F)c2c(c1)CCNC2)N1CCCC1 [S-PFI-2] | 99.98 ± 3.25 | 115.11 ± 2.47 | 94.25 ± 8.54 | increase in HDR efficiency | – | increase the HDR efficiency | 20 | – | – | dose-dependent increases in HDR efficiency | 20 |
| O=C1NC(=O)/C(=C/c2cccc(C(F)(F)F)c2)S1 [SMI-4a] | 105.2 ± 0.07 | 103.18 ± 5.38 | 99.85 ± 1.22 | increase in HDR efficiency | – | increase the HDR efficiency | 20 | – | – | dose-dependent increases in HDR efficiency | 20 |
| CCS(=O)(=O)c1cccc(-c2cc(C(=O)NC3CCN(C)CC3)c(C)c3[nH]c4ncc(C)cc4c23)c1 [TAK-901] | 88.9 ± 1.18 | 36.24 ± 0.88 | 5.65 ± 0.08 | – | – | – | – | – | – | – | – |
